Test results from PubChem BioAssay AID1963825 (Molecular Pharmacology Branch, DTP, NCI, 2024).
Where “and” joins values, the source holds several entries; their conditions need not be identical. Equal values may be shown once.

Test: Anticancer human tumor 997537-175-T-J1-PDC patient-derived colon adenocarcinoma cell line growth inhibition [POLQ]
Conditions: 997537-175-T-J1-PDC complex spheroid viability, combination with POLQ inhibitors; for viability, T/C: stronger effect = lower value
Summary of the method: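 Growth inhibition in 3D: complex spheroids (tumor PDC, HUVEC, MSC) treated with POLQ inhibitor combinations; where Cmax unknown, highest tested concentration 10 microM, except SN-38 at 1 microM.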

[1] = curve of first compound, second compound 0.0316 µM
[2] = curve of first compound, second compound 0.1 µM
[3] = curve of first compound, second compound 0.316 µM
[4] = curve of first compound, second compound 1 µM
[5] = curve of first compound, second compound 3.16 µM
[6] = curve of first compound, second compound 10 µM
[7] = second compound 0.0316 µM, first compound 0.0316 µM
[8] = second compound 0.0316 µM, first compound 0.1 µM
[9] = second compound 0.0316 µM, first compound 0.316 µM
[10] = second compound 0.0316 µM, first compound 1 µM
[11] = second compound 0.0316 µM, first compound 3.16 µM
[12] = second compound 0.0316 µM, first compound 10 µM
[13] = second compound 0.1 µM, first compound 0.0316 µM
[14] = second compound 0.1 µM, first compound 0.1 µM
[15] = second compound 0.1 µM, first compound 0.316 µM
[16] = second compound 0.1 µM, first compound 1 µM
[17] = second compound 0.1 µM, first compound 3.16 µM
[18] = second compound 0.1 µM, first compound 10 µM
[19] = second compound 0.316 µM, first compound 0.0316 µM
[20] = second compound 0.316 µM, first compound 0.1 µM
[21] = second compound 0.316 µM, first compound 0.316 µM
[22] = second compound 0.316 µM, first compound 1 µM
[23] = second compound 0.316 µM, first compound 3.16 µM
[24] = second compound 0.316 µM, first compound 10 µM
[25] = second compound 1 µM, first compound 0.0316 µM
[26] = second compound 1 µM, first compound 0.1 µM
[27] = second compound 1 µM, first compound 0.316 µM
[28] = second compound 1 µM, first compound 1 µM
[29] = second compound 1 µM, first compound 3.16 µM
[30] = second compound 1 µM, first compound 10 µM
[31] = second compound 3.16 µM, first compound 0.0316 µM
[32] = second compound 3.16 µM, first compound 0.1 µM
[33] = second compound 3.16 µM, first compound 0.316 µM
[34] = second compound 3.16 µM, first compound 1 µM
[35] = second compound 3.16 µM, first compound 3.16 µM
[36] = second compound 3.16 µM, first compound 10 µM
[37] = second compound 10 µM, first compound 0.0316 µM
[38] = second compound 10 µM, first compound 0.1 µM
[39] = second compound 10 µM, first compound 0.316 µM
[40] = second compound 10 µM, first compound 1 µM
[41] = second compound 10 µM, first compound 3.16 µM
[42] = second compound 10 µM, first compound 10 µM
[43] = compound alone, run of 12/05/2023
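Further: luminescence signal used as a surrogate for viable cells; spheroids exposed to drugs for seven days before readout.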

## C#Cc1c(F)ccc2cc(O)cc(-c3ncc4c(N5CC6CCC(C5)N6)nc(OCC56CCCN5CC(F)C6)nc4c3F)c12 (configuration not stated) + COC1C(OC(N)=O)C(O)C(Oc2ccc3c(O)c(NC(=O)c4ccc(O)c(CC=C(C)C)c4)c(=O)oc3c2C)OC1(C)C
[1]
  IC50: > 10 µM
[2]
  IC50: > 10 µM
[3]
  IC50: > 10 µM
[4]
  IC50: > 10 µM
[5]
  IC50: > 10 µM
[6]
  IC50: > 10 µM
[7]
  viability, T/C: 98.8%
[8]
  viability, T/C: 111%
[9]
  viability, T/C: 103%
[10]
  viability, T/C: 108%
[11]
  viability, T/C: 112%
[12]
  viability, T/C: 107%
[13]
  viability, T/C: 119%
[14]
  viability, T/C: 104%
[15]
  viability, T/C: 105%
[16]
  viability, T/C: 99%
[17]
  viability, T/C: 123%
[18]
  viability, T/C: 103%
[19]
  viability, T/C: 108%
[20]
  viability, T/C: 116%
[21]
  viability, T/C: 97.9%
[22]
  viability, T/C: 104%
[23]
  viability, T/C: 101%
[24]
  viability, T/C: 98.4%
[25]
  viability, T/C: 107%
[26]
  viability, T/C: 121%
[27]
  viability, T/C: 94.9%
[28]
  viability, T/C: 95.9%
[29]
  viability, T/C: 111%
[30]
  viability, T/C: 97.9%
[31]
  viability, T/C: 108%
[32]
  viability, T/C: 112%
[33]
  viability, T/C: 84.1%
[34]
  viability, T/C: 104%
[35]
  viability, T/C: 119%
[36]
  viability, T/C: 95.8%
[37]
  viability, T/C: 101%
[38]
  viability, T/C: 108%
[39]
  viability, T/C: 109%
[40]
  viability, T/C: 106%
[41]
  viability, T/C: 110%
[42]
  viability, T/C: 97.1%

## Cc1cccc(N(C)C(=O)C2C(O)CCN2c2nc(C)cc(C(F)(F)F)c2C#N)c1 (configuration not stated)
Compound 0.0316 µM
  viability, T/C: 97.6% [middle of 13 runs]
Compound 0.1 µM
  viability, T/C: 98.6% [middle of 13 runs]
Compound 0.316 µM
  viability, T/C: 97.3% [middle of 13 runs]
Compound 1 µM
  viability, T/C: 101% [middle of 13 runs]
Compound 3.16 µM
  viability, T/C: 101% [middle of 13 runs]
Compound 10 µM
  viability, T/C: 96.9% [middle of 13 runs]
Compound alone, run of 11/27/2023
  IC50: > 10 µM
[43]
  IC50: > 10 µM

## Nc1ccc(C#CCN(C(=O)Cc2ncc(C(F)(F)F)cc2C(F)(F)F)c2ccc(F)cc2)nn1
Compound 0.0316 µM
  viability, T/C: 99.2% [middle of 13 runs]
Compound 0.1 µM
  viability, T/C: 97.2% [middle of 13 runs]
Compound 0.316 µM
  viability, T/C: 99.4% [middle of 13 runs]
Compound 3.16 µM
  viability, T/C: 98.6% [middle of 13 runs]
Compound 10 µM
  viability, T/C: 101% [middle of 13 runs]
[43]
  IC50: > 10 µM

## COc1cccc2c1C(=O)c1c(O)c3c(c(O)c1C2=O)CC(O)(C(=O)CO)CC3OC1CC(N)C(O)C(C)O1 (configuration not stated) + Cc1cccc(N(C)C(=O)C2C(O)CCN2c2nc(C)cc(C(F)(F)F)c2C#N)c1
[1]
  IC50: 2.65 µM
[2]
  IC50: 2.39 µM
[3]
  IC50: 4.16 µM
[4]
  IC50: 1.54 µM
[5]
  IC50: 2 µM
[6]
  IC50: 1.78 µM
[7]
  viability, T/C: 81.4%
[8]
  viability, T/C: 98.2%
[9]
  viability, T/C: 104%
[10]
  viability, T/C: 85.8%
[11]
  viability, T/C: 43.6%
[12]
  viability, T/C: 10.9%
[13]
  viability, T/C: 101%
[14]
  viability, T/C: 102%
[15]
  viability, T/C: 113%
[16]
  viability, T/C: 76.6%
[17]
  viability, T/C: 42.2%
[18]
  viability, T/C: 9.45%
[19]
  viability, T/C: 99.3%
[20]
  viability, T/C: 108%
[21]
  viability, T/C: 116%
[22]
  viability, T/C: 95.4%
[23]
  viability, T/C: 63.4%
[24]
  viability, T/C: 9.08%
[25]
  viability, T/C: 92.8%
[26]
  viability, T/C: 111%
[27]
  viability, T/C: 99.8%
[28]
  viability, T/C: 63.7%
[29]
  viability, T/C: 26.1%
[30]
  viability, T/C: 9.7%
[31]
  viability, T/C: 82.9%
[32]
  viability, T/C: 115%
[33]
  viability, T/C: 92.2%
[34]
  viability, T/C: 97%
[35]
  viability, T/C: 18.8%
[36]
  viability, T/C: 10.2%
[37]
  viability, T/C: 102%
[38]
  viability, T/C: 104%
[39]
  viability, T/C: 90.7%
[40]
  viability, T/C: 56.2%
[41]
  viability, T/C: 41.9%
[42]
  viability, T/C: 9.99%

## O=c1[nH]cc(F)c(=O)[nH]1
Compound 0.0316 µM
  viability, T/C: 86.3% and 95% and 102%
Compound 0.1 µM
  viability, T/C: 99.9% and 91.8% and 89.1%
Compound 0.316 µM
  viability, T/C: 108% and 90% and 106%
Compound 1 µM
  viability, T/C: 92.9% and 96.2% and 106%
Compound 3.16 µM
  viability, T/C: 102% and 92% and 105%
Compound 10 µM
  viability, T/C: 83.8% and 76.2% and 81.4%
Curve of compound
  IC50: > 10 µM

## C#Cc1c(F)ccc2cc(O)cc(-c3ncc4c(N5CC6CCC(C5)N6)nc(OCC56CCCN5CC(F)C6)nc4c3F)c12 (configuration not stated) + Cc1cccc(N(C)C(=O)C2C(O)CCN2c2nc(C)cc(C(F)(F)F)c2C#N)c1
[1]
  IC50: > 10 µM
[2]
  IC50: > 10 µM
[3]
  IC50: > 10 µM
[4]
  IC50: > 10 µM
[5]
  IC50: > 10 µM
[6]
  IC50: > 10 µM
[7]
  viability, T/C: 95.2%
[8]
  viability, T/C: 106%
[9]
  viability, T/C: 89.2%
[10]
  viability, T/C: 107%
[11]
  viability, T/C: 108%
[12]
  viability, T/C: 109%
[13]
  viability, T/C: 99.2%
[14]
  viability, T/C: 102%
[15]
  viability, T/C: 98.2%
[16]
  viability, T/C: 104%
[17]
  viability, T/C: 104%
[18]
  viability, T/C: 108%
[19]
  viability, T/C: 106%
[20]
  viability, T/C: 106%
[21]
  viability, T/C: 91.6%
[22]
  viability, T/C: 91.7%
[23]
  viability, T/C: 121%
[24]
  viability, T/C: 105%
[25]
  viability, T/C: 109%
[26]
  viability, T/C: 107%
[27]
  viability, T/C: 111%
[28]
  viability, T/C: 100%
[29]
  viability, T/C: 98.5%
[30]
  viability, T/C: 102%
[31]
  viability, T/C: 106%
[32]
  viability, T/C: 83.5%
[33]
  viability, T/C: 101%
[34]
  viability, T/C: 112%
[35]
  viability, T/C: 101%
[36]
  viability, T/C: 104%
[37]
  viability, T/C: 99.8%
[38]
  viability, T/C: 88.6%
[39]
  viability, T/C: 101%
[40]
  viability, T/C: 119%
[41]
  viability, T/C: 94.1%
[42]
  viability, T/C: 89%
